These results are taken from ChEMBL document CHEMBL5143732 (J Med Chem, 2022).

Values after ≈ are worked out from the molar mass of the structure shown.

What is called MIC is the lowest concentration found to suppress growth. For orientation: HC50 means the concentration that lyses half of the red blood cells. The low end stands for more damage to red cells, the high end for less damage to red cells.

Data set [1] has as its system Candida parapsilosis. The data set is described as follows: Antifungal activity against Candida parapsilosis assessed as inhibition of fungal growth measured after 48 hrs by CLSI based agar dilution method. The class given is functional. Particulars: Lodderomyces parapsilosis. (In general: Agar dilution tests growth on a series of plates holding different concentrations.)

The subject of data set [2] is Pichia kudriavzevii. The data set is described as follows: Antifungal activity against Candida krusei assessed as inhibition of fungal growth measured after 48 hrs by CLSI based agar dilution method. The class given is functional.
A short description of data set [3]: Hemolytic activity in human RBC measured after 1 hr. The format is toxicity, cell-based, Erythrocyte. Particulars: red blood cells (erythrocytes).
The subject of data set [4] is Cryptococcus neoformans. As to the kind of experiment: Antifungal activity against Cryptococcus neoformans ATCC 32609 assessed as inhibition of fungal growth measured after 48 hrs by CLSI based agar dilution method. The class given is functional.
Data set [5] deals with Candida albicans. As to the kind of experiment: Antifungal activity against Candida albicans assessed as inhibition of fungal growth measured after 48 hrs by CLSI based agar dilution method. The format is functional.
Data set [6] relates to Pichia kudriavzevii. As to the kind of experiment: Antifungal activity against Candida krusei ATCC 6258 assessed as inhibition of fungal growth measured after 48 hrs by CLSI based agar dilution method. The class given is functional.
In data set [7] the test system is Candida tropicalis. The data set is described as follows: Antifungal activity against Candida tropicalis assessed as inhibition of fungal growth measured after 48 hrs by CLSI based agar dilution method. The class given is functional.

`CNCC(=O)N[C@@H]1[C@H](O)[C@H](O[C@H]2/C=C/C=C/C=C/C=C/C=C/C=C/C=C/[C@H](C)[C@@H](O)[C@@H](C)[C@H](C)OC(=O)C[C@H](O)C[C@H](O)CC[C@@H](O)[C@H](O)C[C@H](O)C[C@]3(O)C[C@H](O)[C@@H](C(=O)N4CCN(CC(C)(O)CO)CC4)[C@H](C2)O3)O[C@H](C)[C@H]1O` (stereo partly specified): the minimum inhibitory concentration (MIC) in data set [1] was found to be 2 mg/L (≈ 1.74 µM); in data set [2], 0.5 mg/L (≈ 0.434 µM); in data set [4], 0.5 mg/L (≈ 0.434 µM); in data set [5], 0.06 mg/L (≈ 0.0521 µM); in data set [6], 8 mg/L (≈ 6.95 µM); in data set [7] it was 1 mg/L (≈ 0.869 µM). In addition, the HC50 at 1 h in data set [3] was found to be 20.6 µM.
Turning to `C[C@@H]1[C@H](O)[C@@H](C)/C=C/C=C/C=C/C=C/C=C/C=C/C=C/[C@H](O[C@@H]2O[C@H](C)[C@@H](O)[C@H](NC(=O)CN)[C@@H]2O)C[C@@H]2O[C@](O)(C[C@@H](O)C[C@@H](O)[C@H](O)CC[C@@H](O)C[C@@H](O)CC(=O)O[C@H]1C)C[C@H](O)[C@H]2C(=O)NCCCO`, the minimal inhibitory concentration (MIC) in data set [1] was 0.5 mg/L (≈ 0.482 µM); in data set [2] it was 0.25 mg/L (≈ 0.241 µM); in data set [4], 0.25 mg/L (≈ 0.241 µM); in data set [5], 0.5 mg/L (≈ 0.482 µM); in data set [6], 0.25 mg/L (≈ 0.241 µM); in data set [7], 2 mg/L (≈ 1.93 µM). For the same molecule, the concentration for 50% haemolysis (HC50) at 1 h in data set [3] was determined as 7.86 µM.
As for `CNCC(=O)N[C@@H]1[C@H](O)[C@H](O[C@H]2/C=C/C=C/C=C/C=C/C=C/C=C/C=C/[C@H](C)[C@@H](O)[C@@H](C)[C@H](C)OC(=O)C[C@H](O)C[C@H](O)CC[C@@H](O)[C@H](O)C[C@H](O)C[C@]3(O)C[C@H](O)[C@@H](C(=O)N4CCN(CC(C)(C)O)CC4)[C@H](C2)O3)O[C@H](C)[C@H]1O`, the MIC in data set [1] was 4 mg/L (≈ 3.52 µM); in data set [2], 0.5 mg/L (≈ 0.44 µM); in data set [4], 0.5 mg/L (≈ 0.44 µM); in data set [5], 0.25 mg/L (≈ 0.22 µM); in data set [6] it was 16 mg/L (≈ 14.1 µM); in data set [7] it was 1 mg/L (≈ 0.881 µM). The molecule further had a 50% haemolytic concentration (HC50) at 1 h in data set [3] of 27.7 µM.
With `CNCC(=O)N[C@@H]1[C@H](O)[C@H](O[C@H]2/C=C/C=C/C=C/C=C/C=C/C=C/C=C/[C@H](C)[C@@H](O)[C@@H](C)[C@H](C)OC(=O)C[C@H](O)C[C@H](O)CC[C@@H](O)[C@H](O)C[C@H](O)C[C@]3(O)C[C@H](O)[C@@H](C(=O)N4CCC(O)CC4)[C@H](C2)O3)O[C@H](C)[C@H]1O`, the MIC in data set [1] amounted to 2 mg/L (≈ 1.85 µM); in data set [2] it was 2 mg/L (≈ 1.85 µM); in data set [4], 0.25 mg/L (≈ 0.232 µM); in data set [5], 0.5 mg/L (≈ 0.464 µM); in data set [6], 4 mg/L (≈ 3.71 µM); in data set [7] it was 2 mg/L (≈ 1.85 µM). The HC50 at 1 h in data set [3] was found to be 6.3 µM.
Consider `CCOC(=O)NNC(=O)[C@H]1[C@@H]2C[C@@H](O[C@@H]3O[C@H](C)[C@@H](O)[C@H](N)[C@@H]3O)/C=C/C=C/C=C/C=C/C=C/C=C/C=C/[C@H](C)[C@@H](O)[C@@H](C)[C@H](C)OC(=O)C[C@H](O)C[C@H](O)CC[C@@H](O)[C@H](O)C[C@H](O)C[C@](O)(C[C@@H]1O)O2`, for which the MIC turned out to be 2 mg/L (≈ 1.98 µM) in data set [1]; 0.25 mg/L (≈ 0.247 µM) in data set [2]; 0.06 mg/L (≈ 0.0594 µM) in data set [4]; 0.25 mg/L (≈ 0.247 µM) in data set [5]; 0.5 mg/L (≈ 0.495 µM) in data set [6]; 2 mg/L (≈ 1.98 µM) in data set [7]. Further, the 50% haemolytic concentration (HC50) at 1 h in data set [3] worked out at 6.29 µM.
As to `CNCC(=O)N[C@@H]1[C@H](O)[C@H](O[C@H]2/C=C/C=C/C=C/C=C/C=C/C=C/C=C/[C@H](C)[C@@H](O)[C@@H](C)[C@H](C)OC(=O)C[C@H](O)C[C@H](O)CC[C@@H](O)[C@H](O)C[C@H](O)C[C@]3(O)C[C@H](O)[C@@H](C(=O)N4CCN(CCCO)CC4)[C@H](C2)O3)O[C@H](C)[C@H]1O`, the minimal inhibitory concentration (MIC) in data set [1] came to 0.5 mg/L (≈ 0.446 µM); in data set [2] it was 0.5 mg/L (≈ 0.446 µM); in data set [4], 0.125 mg/L (≈ 0.111 µM); in data set [5], 0.5 mg/L (≈ 0.446 µM); in data set [6], 2 mg/L (≈ 1.78 µM); in data set [7] it was 0.5 mg/L (≈ 0.446 µM). Besides, the concentration for 50% haemolysis (HC50) at 1 h in data set [3] worked out at 19.5 µM.
For the molecule `CNCC(=O)N[C@@H]1[C@H](O)[C@H](O[C@H]2/C=C/C=C/C=C/C=C/C=C/C=C/C=C/[C@H](C)[C@@H](O)[C@@H](C)[C@H](C)OC(=O)C[C@H](O)C[C@H](O)CC[C@@H](O)[C@H](O)C[C@H](O)C[C@]3(O)C[C@H](O)[C@@H](C(=O)N4CCN(CC(O)CO)CC4)[C@H](C2)O3)O[C@H](C)[C@H]1O` (stereo partly specified), the MIC was 0.25 mg/L (≈ 0.22 µM) in data set [1]; 1 mg/L (≈ 0.879 µM) in data set [2]; 0.5 mg/L (≈ 0.44 µM) in data set [4]; 1 mg/L (≈ 0.879 µM) in data set [5]; 2 mg/L (≈ 1.76 µM) in data set [6]; 1 mg/L (≈ 0.879 µM) in data set [7]. Moreover, in data set [3], the HC50 at 1 h was found to be 9.06 µM.
`COC(=O)NNC(=O)[C@H]1[C@@H]2C[C@@H](O[C@@H]3O[C@H](C)[C@@H](O)[C@H](N)[C@@H]3O)/C=C/C=C/C=C/C=C/C=C/C=C/C=C/[C@H](C)[C@@H](O)[C@@H](C)[C@H](C)OC(=O)C[C@H](O)C[C@H](O)CC[C@@H](O)[C@H](O)C[C@H](O)C[C@](O)(C[C@@H]1O)O2`: the minimum inhibitory concentration (MIC) in data set [1] worked out at 0.5 mg/L (≈ 0.502 µM); in data set [2], 0.015 mg/L (≈ 0.0151 µM); in data set [4] it was 0.125 mg/L (≈ 0.125 µM); in data set [5], 0.015 mg/L (≈ 0.0151 µM); in data set [6], 0.25 mg/L (≈ 0.251 µM); in data set [7] it was 0.5 mg/L (≈ 0.502 µM). The molecule also gave an HC50 at 1 h in data set [3] of 5.69 µM.
